In patent publication US20050256132A1, “Use of ER selective NF-kB inhibitors for the treatment of sepsis” (priority 2003, published 2005):

Legend:
Creatine Kinase = assay: Creatine kinase expression in Ad5-wt-ERα infected HAECT-1 cells (Table 1); assay type: cell-based, human; conditions: Homo sapiens, HAECT1, read-out: Creatine Kinase EC50
Method: T-175 flasks of 100% confluent HAECT-1 cells (immortalized human aortic endothelial cells) were washed with 8 mL of HBSS (HEPES buffered saline solution) and infected for four hours with 6 mL of a 1:10 dilution of Ad5-wt-hERα virus (an adenovirus transfection vector that mediates CMV promoter driven expression of human ERα) in phenol red free Endothelial Cell Basal medium (Clonetics, San Diego Calif., Catalog # CC-3129) containing 0.25% bovine serum albumin (EBM-BSA). After four hours, cells were washed with EBM-BSA and incubated overnight in the same medium. Following overnight incubation, cells were washed with EBM-BSA and infected for 2 hours with 6 mL of a 1:10 dilution of Ad5-3x(NF-κB).Luc virus (Adenovirus luciferase expression vector driven by 3 repeats of the MHC NF-κb site 5′ to the thymidine kinase promoter) in EBM-BSA. […]
ERα infected HAECT-1 cells or control cells were thawed, diluted 42× in warm EBM-BSA, plated into 96-well plates at 0.1 mL/well and incubated for 4 hours at 34° C. […] Luciferase was determined on a Wallac Victor Luminometer (Gaithersburg, Md.) using 10 μL of lysate and mixing with 100 μL of Promega Luciferase Assay reagent. Creatine kinase was determined from the rate of increase in A340 following addition of 100 μL of CK assay reagent (Sigma, cat. No 47-10) to the remainder of the cell lysate. […]

CK = CK activity in lysate of ERα expressing HAECT-1 cells; assay type: cell-based, human; conditions: FIG. 1D
Method: (A) The effect of compound 67 on NF-κB mediated luciferase reporter activity in HAECT-1 cells expressing ERα. […] (C) The effect of compound 67 on the human IL-6 promoter luciferase reporter activity in HAECT-1 cells expressing either ERα (squares) or ERβ (diamonds). (D) The remaining lysate from (A) was used to determine CK activity.
HAECT-1 cells (Chadwick C C, et al., Proc Natl Acad Sciences, 2005, 102(7): 2543-2548) were cultured in EGM (GIBCO, Rockville, Md.) containing 10% FBS, 1% GlutaMAX and 0.1% Antimycotic-Antibiotic in Falcon T-175 culture flasks at 34° C. in 5% CO2 and infected for four hours with Ad5-wt-ER virus. After overnight recovery, the cells were infected for 2 hours with the Ad5-3x(NFκB).Luc or Ad5-IL6.Luc virus. Compound 67 and 2 ng/ml IL-1 were added to the cells for 15-20 h and the cell lysate was assayed for luciferase activity and evaluated for CK expression (Stanbio Laboratories, Texas). The values are reported as mean±SEM with n=4 from at least 3 independent experiments.

- EC50 (Creatine Kinase): 5.8 nM
- EC50 (CK; Homo sapiens, HAECT1): 2 nM
Structure (SMILES): C[C@]12CC[C@@H]3c4ccc(O)cc4CC[C@H]3[C@@H]1CC[C@@H]2O [Example E2, 17β-estradiol, reference compound]
- stimulation of CK activity (CK): approximately 1.7 fold
